{
  "source": "BindingDB's records for doi:10.1021/jm960597m",
  "about": "(Division of Warner Lambert, 1997)",
  "assay": "Inhibition of [3H]thymidine uptake by Dopamine receptor D2",
  "data": [
    {"compound": "c1ccc(N2CCN(CC[C@H]3CC[C@H](c4c[nH]c5ccccc54)CC3)CC2)nc1", "note": "[3-{4-[2-(4-Pyridin-2-yl-piperazin-1-yl)-ethyl]-cyclohexyl}-1H-indole]", "values": [
      {"measurement": "EC50", "value": 2.8, "unit": "nM"}
    ]}
  ]
}
